In the supplement of paper PMC8671470:

How the values were obtained:
Details in all cases: 72 h
BV-173 [1] = test system: BV-173
Method in brief: (§1)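 The IC50 was derived from log-logistic dose–response fitting. Each of fifteen myeloid leukaemia cell lines, seeded in RPMI 1640 within its linear growth range, was exposed in 384-well plates to five tenfold doses (1 to 10,000 nM) in duplicate for 72 h at 37 °C and 5% CO2. Luminescent ATP viability readings were normalised to vehicle and to a positive control at 10 µM before four-parameter curve fitting.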

HEL [2] = test system: HEL
Method in brief: as §1

HL-60 [3] = test system: HL-60
Method in brief: as §1

K-562 = test system: K-562
Method in brief: as §1

KCL-22 [4] = test system: KCL-22
Method in brief: as §1

KG-1 [5] = test system: KG-1
Method in brief: as §1

KU-812 [6] = test system: KU-812
Method in brief: as §1

LAMA-84 [7] = test system: LAMA-84
Method in brief: as §1

ML-2 [8] = test system: ML-2
Method in brief: as §1

MOLM-13 [9] = test system: MOLM-13
Method in brief: as §1

MV4-11 [10] = test system: MV4-11
Method in brief: as §1

Mono-Mac-6 [11] = test system: Mono-Mac-6
Method in brief: as §1

NOMO-1 [12] = test system: NOMO-1
Method in brief: as §1

SHI-1 [13] = test system: SHI-1
Method in brief: as §1

THP-1 [14] = test system: THP-1
Method in brief: as §1

BV-173 [15] = test: cell viability (% survival relative to DMSO control, bortezomib = 0%); higher = less cytotoxic
Method in brief: (§2)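 In 384-well plates pre-printed with compounds at 1, 10, 100, 1000 or 10000 nM, duplicate wells received cells from 10 AML and 5 CML lines at densities within the linear growth range. The plates stayed at 37 °C with 5% CO2 for 72 h before CellTiter-Glo luminescence was recorded. Each entry is averaged percent survival. Scaling placed vehicle at 100% and a 10 µM positive control at 0%.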

HEL [16] = test: as above
Method in brief: as §2

HL-60 [17] = test: as above
Method in brief: as §2

KCL-22 [18] = test: as above
Method in brief: as §2

KG-1 [19] = test: as above
Method in brief: as §2

KU-812 [20] = test: as above
Method in brief: as §2

LAMA-84 [21] = test: as above
Method in brief: as §2

ML-2 [22] = test: as above
Method in brief: as §2

MOLM-13 [23] = test: as above
Method in brief: as §2

MV4-11 [24] = test: as above
Method in brief: as §2

Mono-Mac-6 [25] = test: as above
Method in brief: as §2

NOMO-1 [26] = test: as above
Method in brief: as §2

SHI-1 [27] = test: as above
Method in brief: as §2

THP-1 [28] = test: as above
Method in brief: as §2

HL-60 [29] = test: area under dose-response curve (viability, 1 nM-10 uM) (fraction (0-1)); higher = more sensitive
Method in brief: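 A rescreen of the full library used HL-60 cells in RPMI 1640 with 10% FBS on 384-well plates, run in duplicate at five tenfold concentrations (1–10,000 nM). Each screen included DMSO or 100 nM of one of three metabolic inhibitors and ran 72 h at 37 °C, 5% CO2. CellTiter-Glo viability was scaled between DMSO and 10 μM proteasome-inhibitor wells. Any area under the curve comes from four-parameter log-logistic fits with drc and PharmacoGx.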

Cc1ccccc1C(C(=O)NC1CCCCC1)N(C(=O)Cn1ccnc1C)c1cccc(F)c1 (centres undefined) [AGI-5198]
Details	IC50 (cell viability) [µM]
BV-173 [1]	> 10
HEL [2]	> 10
HL-60 [3]	> 10
K-562	> 10
KCL-22 [4]	> 10
KG-1 [5]	> 10
KU-812 [6]	> 10
LAMA-84 [7]	> 10
ML-2 [8]	> 10
MOLM-13 [9]	> 10
MV4-11 [10]	> 10
Mono-Mac-6 [11]	> 10
NOMO-1 [12]	> 10
SHI-1 [13]	> 10
THP-1 [14]	> 10

Details	area under dose-response curve, co-treatment: AZD3965 100 nM	area under dose-response curve, co-treatment: DMSO vehicle	area under dose-response curve, co-treatment: GSK2194069 100 nM	area under dose-response curve, co-treatment: pictilisib 100 nM	cell viability, 1 nM [%]	cell viability, 10 nM [%]	cell viability, 100 nM [%]	cell viability, 1000 nM [%]	cell viability, 10000 nM [%]
BV-173 [15]	–	–	–	–	88.3	103	107	104	95.2
HEL [16]	–	–	–	–	95.4	104	106	99.4	101
HL-60 [17]	–	–	–	–	107	106	99.5	102	116
HL-60 [29]	< 0.0301	< 0.0301	< 0.0301	< 0.0301	–	–	–	–	–
KCL-22 [18]	–	–	–	–	101	114	132	111	104
KG-1 [19]	–	–	–	–	102	100	128	94.9	94.5
KU-812 [20]	–	–	–	–	97.7	105	109	92.1	103
LAMA-84 [21]	–	–	–	–	97.6	104	115	97.2	99.9
ML-2 [22]	–	–	–	–	96.8	106	122	103	95.1
MOLM-13 [23]	–	–	–	–	87	124	108	80	118
MV4-11 [24]	–	–	–	–	94	102	91.5	91.4	115
Mono-Mac-6 [25]	–	–	–	–	92.8	107	100	104	99
NOMO-1 [26]	–	–	–	–	96	103	107	100	102
SHI-1 [27]	–	–	–	–	94.9	92.7	107	96.2	99.1
THP-1 [28]	–	–	–	–	96.9	100	107	101	100

CCCCCCCCCCCC(=O)c1c(O)c(C(=O)CCCCCCCCCCC)c(O)c(C2CC(c3ccc(O)cc3)Oc3cc(O)ccc32)c1O (centres undefined)
Details	IC50 (cell viability) [µM]
BV-173 [1]	> 10
HEL [2]	> 10
HL-60 [3]	> 10
K-562	> 10
KCL-22 [4]	> 10
KG-1 [5]	> 10
KU-812 [6]	> 10
LAMA-84 [7]	> 10
ML-2 [8]	> 10
MOLM-13 [9]	> 10
MV4-11 [10]	> 10
Mono-Mac-6 [11]	> 10
NOMO-1 [12]	> 10
SHI-1 [13]	> 10
THP-1 [14]	> 10

cell viability [%]
Details	1 nM	10 nM	100 nM	1000 nM	10000 nM
BV-173 [15]	119	114	102	101	89
HEL [16]	108	97.8	115	110	87
HL-60 [17]	118	119	70.4	105	114
KCL-22 [18]	107	113	115	123	102
KG-1 [19]	101	117	128	101	81.8
KU-812 [20]	102	104	110	102	105
LAMA-84 [21]	105	99.9	114	103	99.1
ML-2 [22]	105	114	118	116	104
MOLM-13 [23]	101	119	89.5	99.1	82.9
MV4-11 [24]	95.9	115	101	98.5	90.1
Mono-Mac-6 [25]	86.1	112	106	103	91.6
NOMO-1 [26]	108	118	110	111	96.7
SHI-1 [27]	95.1	111	102	112	104
THP-1 [28]	101	114	107	104	102
